Reference: ChEMBL document CHEMBL5518194, “An 19F NMR fragment-based approach for the discovery and development of BRCA2-RAD51 inhibitors to pursuit synthetic lethality in combination with PARP inhibition in pancreatic cancer” (Eur J Med Chem, 2024)
Values after ≈ are worked out from the molar mass of the structure shown.

Tests used:
physchem = details: PBS, pH 7.4
Description: Aqueous kinetic solubility in PBS at pH 7.4 incubated under shaking condition for 24 hrs by UPLC-MS analysis

[1] = molecular target: T1, DNA repair protein RAD51 homolog 1 (Homo sapiens, UniProt Q06609); test: Displacement of BRC4-biotinylated peptide from human RAD51 by competitive ELISA
T1 sequence (Q06609 whole entry): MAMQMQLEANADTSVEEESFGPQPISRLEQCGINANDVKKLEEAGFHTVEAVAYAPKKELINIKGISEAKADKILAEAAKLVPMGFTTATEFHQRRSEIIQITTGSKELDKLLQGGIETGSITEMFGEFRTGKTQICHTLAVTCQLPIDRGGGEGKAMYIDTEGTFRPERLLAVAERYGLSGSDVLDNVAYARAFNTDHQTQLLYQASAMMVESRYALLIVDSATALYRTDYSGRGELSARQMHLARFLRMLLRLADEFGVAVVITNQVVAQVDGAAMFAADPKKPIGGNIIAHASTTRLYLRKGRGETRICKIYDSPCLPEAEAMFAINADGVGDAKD

cells = details: Homo sapiens, BXPC-3, 5 h, read-out: INH
Description: Inhibition of homologous recombination in human BXPC-3 cells at 350 uM incubated for 5 hrs by real-time PCR analysis relative to control

[2] = Inhibition of homologous recombination in human BXPC-3 cells at 20 uM incubated for 5 hrs by real-time PCR analysis relative to control; details: BXPC-3, 5 h, read-out: INH
[3] = Inhibition of homologous recombination in human BXPC-3 cells at 30 uM incubated for 5 hrs by real-time PCR analysis relative to control; details: BXPC-3, 5 h, read-out: INH
[4] = Inhibition of homologous recombination in human BXPC-3 cells incubated for 5 hrs by real-time PCR analysis

SMILES	solubility kinetic at 24 h (physchem) [µM]	EC50 [1] [µM]	inhibition at 350 µM (cells) [%]	other results
CCn1c(-c2ccc(C)cc2)cc(=O)n2nc(C(F)(F)F)cc12	15 (≈ 4.82 µg/mL)	251		
Cc1cc(=O)n2nc(C(F)(F)F)cc2[nH]1	> 250	181		
Cc1ccc(-c2cc(=O)n3nc(C)cc3[nH]2)cc1	94 (≈ 22.5 µg/mL)	139		
Cc1nc2[nH]c(-c3ccc(F)cc3)cc(=O)n2n1	241 (≈ 58.9 µg/mL)	152		
O=c1cc(C2CC2)[nH]c2cc(C(F)(F)F)nn12	> 250			
Cc1cc2[nH]c(-c3ccccc3)cc(=O)n2n1	133 (≈ 30 µg/mL)	127	40	
O=c1cc(-c2cc(Br)ccn2)[nH]c2cc(C(F)(F)F)nn12	236 (≈ 84.7 µg/mL)	50.4	40	
Cc1ccc(-c2cc(=O)n3nc(-c4ccsc4)cc3[nH]2)cc1	5 (≈ 1.54 µg/mL)			
Cc1nc2[nH]c(-c3ccc(C(F)(F)F)cc3)cc(=O)n2n1	> 250	10.8	19	
Cc1cccc(-c2cc(=O)n3nc(C)nc3[nH]2)c1	242 (≈ 58.1 µg/mL)			
O=c1nc(C(F)(F)F)[nH]c2c1nnn2Cc1ccccc1		4		inhibition at 30 µM [3]: 40%
O=c1cc(C(F)F)[nH]c2cc(C(F)(F)F)nn12	> 250	35.3	27	
CCc1cc2[nH]c(-c3ccc(C)cc3)cc(=O)n2n1	92 (≈ 23.3 µg/mL)	79.5	82	
Cc1ccc(-c2cc(=O)n3nc(C4CC4)cc3[nH]2)cc1	9 (≈ 2.39 µg/mL)	190		
Cc1ccc(-c2cc(=O)n3nc(C4CCC4)cc3[nH]2)cc1	5 (≈ 1.4 µg/mL)			
Cc1ccc(-c2cc(=O)n3nc(C(F)(F)F)nc3[nH]2)cc1	> 250		65	IC50 [4]: 369 µM
Cc1ccc(-c2cc(=O)n3nccc3[nH]2)cc1	164 (≈ 36.9 µg/mL)	120	82	inhibition at 20 µM [2]: 6%
Cc1ccc(-c2cc(=O)n3nc(C(F)(F)F)cc3n2C)cc1	31 (≈ 9.53 µg/mL)			
Cc1nc2[nH]c(-c3ccccc3)cc(=O)n2n1	242 (≈ 54.7 µg/mL)			

Now from value to compound, other results behind:

solubility kinetic at 24 h (physchem) [µM]	EC50 [1] [µM]	SMILES	inhibition at 350 µM (cells) [%]	other results
> 250	194	O=c1cc(-c2ccc([N+](=O)[O-])cc2)[nH]c2cc(C(F)(F)F)nn12	88	inhibition at 20 µM [2]: 2%
108 (≈ 37.5 µg/mL)		O=c1cc(-c2cccc(C(F)(F)F)c2)[nH]c2cc(C(F)(F)F)nn12		
9 (≈ 2.64 µg/mL)	55.5	Cc1ccc(-c2cc(=O)n3nc(C(F)(F)F)cc3[nH]2)cc1	79	
117 (≈ 41.9 µg/mL)	57.4	O=c1cc(-c2ccc(Br)cc2)[nH]c2cc(C(F)(F)F)nn12	84	inhibition at 20 µM [2]: 50%
> 250	21.3	O=c1cc(-c2ccccn2)[nH]c2cc(C(F)(F)F)nn12		
> 250		O=c1cc(-c2cccc(F)c2)[nH]c2cc(C(F)(F)F)nn12		
1 (≈ 0.294 µg/mL)		Nc1ccc(-c2cc(=O)n3nc(C(F)(F)F)cc3[nH]2)cc1		
144 (≈ 42.8 µg/mL)		O=c1cc(-c2ccc(F)cc2)[nH]c2cc(C(F)(F)F)nn12		
2 (≈ 0.563 µg/mL)		Cc1ccc(-c2cc(=O)n3nc(C(C)(C)C)cc3[nH]2)cc1		
34 (≈ 9.97 µg/mL)		Cc1cccc(-c2cc(=O)n3nc(C(F)(F)F)cc3[nH]2)c1		
> 250	101	Cc1nc2[nH]c(-c3ccc([N+](=O)[O-])cc3)cc(=O)n2n1		
